Data set [1] deals with IL23-induced rat otitis model. Description: In vivo pharmacodynamics in IL23-induced rat otitis model (ear thickening). Set-up: species or system SD rats. Conditions: 10 mg/kg, gavage, QD. The text has this:
To evaluate the in vivo efficacy of the compounds in an IL23-induced rat otitis model.
SD rats, 6-8 weeks old, male, purchased from Jiangsu GemPharmatech Co., Ltd.
• a. […]

A further data set can be described thus: in vitro. The data set is classed as in vitro ADME. The conditions noted are these: 37° C.; for half-life at 0.5 μM: in vitro half-life, read-out: t1/2 (converted); for remaining at 4 h, 0.5 µM: read-out: Residual ratio % at 4 h. How it is done: (§1) To study the stability of the compounds of the examples in the plasmas of mice, rats, dogs and humans.
(§2) Preparation of plasma: Animal or human whole blood was collected, then put into a test tube containing an anticoagulant, and centrifuged at 3500 rpm for 10 min, and the upper pale yellow plasma was collected; • working solution of 10 μM test compound: a stock solution was prepared with DMSO, and the working solution was prepared with 100 mM phosphate buffer; • working solution of 10 μM positive control: • procaine: 2.36 mg of procaine was weighed and diluted into a 10 mM stock solution with 1 mL of DMSO. 10 μL of the 10 mM stock solution was pipetted into 1 mL of 100 mM phosphate buffer, such that the final concentration was 100 μM; and • enalapril: 4.93 mg of enalapril was weighed and diluted into a 10 mM stock solution with 1 mL of DMSO; and 10 μL of the 10 mM stock solution was pipetted into 1 mL of 100 mM phosphate buffer, such that the final concentration was 100 μM.
(§3) In a 96-well plate, 285 μL of plasma and 15 μL of 10 μM compound (test compound, and positive control) were successively added and incubated at 37° C.
(§4) 40 μL was taken at 0, 15, 30, 60, 90, and 120 min (sampling points could be fine-tuned), respectively, and 160 μL of an acetonitrile stop solution containing an internal standard was added.
(§5) After centrifugation (3500 rpm, 10 min), 50 μL of the supernatant was taken, diluted by adding 50 μL of DDH2O, and then injected for LC-MS/MS.
(§6) • Instrument: Shimadzu LC-20 AD • Chromatographic column: Phenomenex Gemiu® C18 (50*4.6 mm, 5 μm particle size) • Mobile phase: A: acetonitrile, B: 0.1% formic acid solution • Elution gradient: […]: 5% A→95% A, 2.0-2.1 min: […] • Flow rate: 0.8 mL/min • Run time: 5.0 min • Injection volume: 5 μL
(§7) • Instrument: API4000 liquid chromatography mass spectrometer, AB, US • Ion source: electrospray ionization source (ESI) • Drying gas: N2, temperature 500° C. • Electrospray voltage: 5500V • Detection mode: positive ion detection • Scan mode: multi reaction monitoring (MRM) mode • Scan time: 0.1 s
(§8) All calculations were carried out using Microsoft Excel. The peak area ratio was determined by an extracted ion chromatogram.
(§9) The residual percentage of the compound at each time point was calculated by the following equation: Residual percentage at t hours (%)=peak area ratio at t hours/peak area ratio at 0 hour×100%, in which the peak area ratio at t hr was the peak area ratio of the […] at t min; and • the slope value k was determined by linear regression on the natural logarithm of the curve of the residual percentage of the parent drug versus the incubation time.
(§10) In vitro half-life (in vitro t1/2) was determined by the slope value: […]

Data set [2] is described as follows: Stability in plasma (human). It counts as in vitro ADME. Here is the method: as §1, §2, §3, §4, §5, §6, §7, §8, §9, §10

`CC(=O)NCCCC[C@@H]1NC(=O)[C@H](Cc2c[nH]c3c(C)cccc23)NC(=O)[C@H]([C@@H](C)O)NC(=O)[C@H](CC(N)=O)NC(=O)[C@@H](NC(C)=O)C(C)(C)SSC(C)(C)[C@@H](C(=O)N[C@@H](Cc2ccc(OCCN)cc2)C(=O)N[C@@H](Cc2ccc3ccccc3c2)C(=O)NC2(C(=O)N[C@@H](CCC(=O)O)C(=O)N[C@@H](CC(N)=O)C(=O)N[C@@H](Cc3cccnc3)C(=O)N(C)CCNC(=O)CCOCCOCC[N+](C)(C)CCNC(=O)COCCOCCNC(=O)COCCOCCNC(=O)CC[C@H](NC(=O)CCCCCCCCCCCCCCC(=O)O)C(=O)O)CCC(F)(F)CC2)NC1=O` [Example 1-16-1]: the “Inhibition rate on Day 4 (ear thickening)” value in data set [1] is 70.77%. Further, the half-life at 0.5 μM was 3.15 days in “in vitro” (Dog plasma); 25.1 days in “in vitro” (Rat plasma); 83.6 days in “in vitro” (mouse, Mice plasma); 1.72 days in data set [2] (human, plasma). The remaining at 4 h, 0.5 µM turned out to be 90.5% in the data set “in vitro” (Dog plasma); 104% in “in vitro” (Rat plasma); 104% in “in vitro” (mouse, Mice plasma); 94.8% in data set [2] (Human plasma, 37° C., read-out: Residual ratio % at 4 h).

The values above are taken from patent US20260193294A1, “POLYPEPTIDE INHIBITOR, AND PREPARATION METHOD THEREFOR AND USE THEREOF” (SHANGHAI HANSOH BIOMEDICAL CO., LTD., priority 2022, published 2026).
